Source: US5457106A, “Pyridine derivatives, their production and use” (Takeda Chemical Industries, Ltd., priority 1991, dated 1995)
Counter-ions that a name gives are not always drawn.

Experiments:
[1] = system: Rat carrageenin pedal edema; test: Rat carrageenin pedal edema inhibitory activity; type: in vivo, rat (Jcl: SD); settings: 50 mg/kg, orally, 3 hours after carrageenin; for inhibition in vivo at 50 mg/kg: Rattus norvegicus, po, 3 h, read-out: Inhibitory percentage (carrageenin pedal edema)
Experimental: Rat Carrageenin Pedal Edema Inhibitory Activity A Jcl: SD male rat (6 weeks old, weight 160-220 g) was used. After the mesurement of the volume of the dexter hind limb foot pad, a test compound suspended in 5% gum arabic solution was administered orally. Immediately after the administration, water was further administered orally so that the total administration volume of liquid became 5 ml/rat. After one hour, 0.05 ml of 1% carrageenin suspension in physiological saline was injected subcutaneously in the foot pad to induce edema [Winter, […]. and Nuss, G. W.: Proc. Soc. exp. […] Three hours after injection of carrageenin, the volume of the dexter limb was measured, and the edema volume was calculated by the difference between the volume after injection and the volume prior to injection.

cyclooxygenase = target: T1, cyclooxygenase (Rattus norvegicus, UniProt Q63921); test: Cyclooxygenase inhibitory activity (HHT formation from arachidonic acid in rat platelet-rich plasma); type: cell-based, rat (Jcl:wistar)
T1 construct: from tissue; host or cells: platelets in platelet-rich plasma from rat abdominal aorta blood (Jcl:wistar, male)
T1 sequence (Q63921 27-602): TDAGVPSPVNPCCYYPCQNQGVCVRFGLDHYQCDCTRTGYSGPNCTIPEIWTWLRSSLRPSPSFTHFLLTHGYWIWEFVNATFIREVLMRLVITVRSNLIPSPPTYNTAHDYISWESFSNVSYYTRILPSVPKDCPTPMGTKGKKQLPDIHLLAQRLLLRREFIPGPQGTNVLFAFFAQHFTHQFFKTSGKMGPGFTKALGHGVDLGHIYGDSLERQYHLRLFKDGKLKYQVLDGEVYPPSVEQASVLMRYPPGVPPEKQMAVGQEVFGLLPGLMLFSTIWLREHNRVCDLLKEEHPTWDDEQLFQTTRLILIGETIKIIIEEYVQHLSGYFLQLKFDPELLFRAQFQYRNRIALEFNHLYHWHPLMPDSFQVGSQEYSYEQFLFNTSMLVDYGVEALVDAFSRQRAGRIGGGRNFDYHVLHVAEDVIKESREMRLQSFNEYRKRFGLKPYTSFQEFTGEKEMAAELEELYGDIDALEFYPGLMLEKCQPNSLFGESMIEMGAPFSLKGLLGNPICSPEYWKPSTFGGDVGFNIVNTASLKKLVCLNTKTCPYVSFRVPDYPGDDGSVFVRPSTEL

[2] = system: ART (antigen-responding T-cell); test: In vitro ART (antigen-responding T-cell) proliferation test; type: cell-based, Lewis rat; settings: for inhibition at 1 µM / inhibition at 10 µM: Rattus norvegicus, T-cell, read-out: % Inhibition of ART growth
[3] = system: Mouse phenylquinone writhing; test: Mouse phenylquinone writhing inhibitory activity; type: in vivo, mouse (Slc: ICR); settings: 50 mg/kg, orally; for inhibition in vivo at 50 mg/kg: Mus musculus, po, 20 min, read-out: Inhibitory percentage (phenylquinone writhing)
Experimental: Mouse Phenylquinone Writhing Inhibitory Activity A Slc: ICR male mouse (4 weeks, weight 17 to 24 g) was used. A test compound suspended in 5% gum arabic solution was administered orally. After 30 minutes, 0.1 ml/10 g body weight of 0.02% phenylquinone solution in water (dissolved by the aid of 5% ethanol) was injected intraperitoneally, and writhing and stretching responses of individual animals were measured for 20 minutes [Siegmund, E., Cadmus, R. and Lu, G.; Proc. Soc. exp. Biol. Med. 95, (1957)].

[4] = system: brewer's yeast induced pyrexia; test: Antipyretic activity (brewer's yeast induced pyrexia); type: in vivo, rat (DS line); settings: 50 mg/kg, orally; for Antipyretic activity, .increment. °C.: at peak time
Experimental: Antipyretic Activity Six male DS line rats, 7 weeks old, weighing 200 to 240 g (Nihon Clea) per one group were used. According to the method of Winder et al. (J. Pharmac. Exp. Ther. 138: 405 (1963)), a suspension of 15% brewer's yeast (Sigma) in physiological saline (1 ml/100 g, b.w.) was injected subcutaneously at 16 hours before measurement of the body temperature to induce pyrexia. After injection of yeast, only water was provided, and each rat was bred separately in a five duplicate cage. At 16, 17 and 18 hours after yeast injection, the rectal temperature was measured by a thermistor thermometer (Takara Kogyo K.K.), and this was taken as the basal body temperature. […] Animals having the body temperature of not lower than 38.5° C. at 18 hours after yeast injection were selected, and a test compound was administered orally (1 ml/100 g, b.w.). As a control, only the solvent was provided. Upon administration, the body temperature of the control group and that of the test compound-administered group were adjusted to the same temperature. The rectal temperature was measured every hour till five hours after administration.

Compound | inhibition in vivo at 50 mg/kg [1] [%] | IC50 (cyclooxygenase) [µM] | inhibition in vivo at 50 mg/kg [3] [%] | also measured
4-(4-isobutyrylpiperidylthio)pyridine [Example 136] | – | – | – | Inhibitory percentage (carrageenin pedal edema) [1]: 33%
O=C(/C=C/c1ccccc1)NCCCSc1ccncc1 [Example 28, 4-[3-(cinnamoylamino)propylthio]pyridine hydrochloride] | 25 | 5.6 | – | –
O=C(NCCCSc1ccncc1)c1ccc(Cl)cc1 [Example 29, 4-[3-(4-chlorobenzoylamino)propylthio]pyridine hydrochloride] | 25 | – | – | –
Cc1ccc(C(=O)NCCCSc2ccncc2)cc1 [Example 31, 4-[3-(4-methylbenzoylamino)propylthio]pyridine] | 32 | 4.6 | – | –
COc1cc(OC)cc(C(=O)NCCCSc2ccncc2)c1 [Example 33, 4-[3-(3,5-dimethoxybenzoylamino)propylthio]pyridine] | 37 | 2.8 | – | inhibition at 1 µM ([2]; 1 μM): 33%; inhibition at 10 µM ([2]; 10 μM): 46%
O=C(NCCCSc1ccncc1)c1ccccc1 [Example 40, 4-[3-(benzoylamino)propylthio]pyridine] | – | 7.6 | 45 | Antipyretic activity, peak time [4]: 3 h; Antipyretic activity, .increment. °C. [4]: -2.00 °C
O=C1c2ccccc2C(=O)N1CSc1ccccn1 [Example 64, 2-(phthalimidomethylthio)pyridine] | – | – | 56 | Antipyretic activity, peak time [4]: 3 h; Antipyretic activity, .increment. °C. [4]: -2.58 °C
CC(C)(C)C(=O)Nc1ncccc1CCN1C(=O)c2ccccc2C1=O.Cl [Example 71, 3-[2-(phthalimido)ethyl]-2-(pivaloylamino)pyridine hydrochloride] | – | – | 55 | Antipyretic activity, peak time [4]: 2 h; Antipyretic activity, .increment. °C. [4]: -0.52 °C
CC(=O)N(CCCSc1ccncc1)Cc1ccccc1.Cl [Example 76, 4-[3-(N-benzyl-N-acetylamino)propylthio]pyridine hydrochloride] | – | 13 | – | Inhibitory percentage (phenylquinone writhing) [3]: 61%; % Inhibition of ART growth ([2]; 1 μM): 3%; % Inhibition of ART growth ([2]; 10 μM): 38%
O=C(N(CCCSc1ccncc1)Cc1ccccn1)C(F)(F)F [Example 78, 4-[3-(N-2-pyridylmethyl-N-trifluoroacetylamino)propylthio] pyridine dihydrochloride] | – | 5.2 | 55 | –
O=C(c1ccccc1)N(CCCSc1ccncc1)Cc1ccccn1 [Example 81, 4-[3-(N-2-pyridylmethyl-N-benzoylamino)propylthio]pyridine] | – | 6.8 | – | Inhibitory percentage (phenylquinone writhing) [3]: 75%
O=C1c2ccccc2C(=O)N1CCCOc1ccncc1 [Example 83, 4-(3-phthalimidopropyloxy)pyridine] | – | 10 | 59 | Antipyretic activity, peak time [4]: 2 h; Antipyretic activity, .increment. °C. [4]: -0.82 °C
O=C1c2ccccc2C(=O)N1CCCCOc1ccncc1 [Example 84, 4-(4-phthalimidobutyloxy)pyridine] | – | 4.5 | 84 | Antipyretic activity, peak time [4]: 3 h; Antipyretic activity, .increment. °C. [4]: -0.97 °C
O=C(NCCCOc1ccncc1)c1cc2ccccc2s1 [Example 85, 4-[3-(thianaphtene-2-carbonylamino)propyloxy]pyridine] | – | 1.4 | 70 | Antipyretic activity, peak time [4]: 2 h; Antipyretic activity, .increment. °C. [4]: -1.00 °C
CCCCCCCCCC(=O)NCCCOc1ccncc1 [Example 88] | – | 1.2 | 41 | –
O=C(NCCCOc1ccncc1)c1cccs1 [Example 89, 4-[3-(2-thenoylamino)propyloxy]pyridine] | – | – | 62 | Antipyretic activity, peak time [4]: 3 h; Antipyretic activity, .increment. °C. [4]: -2.72 °C

Compound | inhibition in vivo at 50 mg/kg [1] [%] | IC50 (cyclooxygenase) [µM] | inhibition in vivo at 50 mg/kg [3] [%] | also measured
Cl.O=C(c1ccccc1)N(CCCSc1ccncc1)Cc1cccs1 [Example 93, 4-[3-(N-(2-thienylmethyl)benzoylamino)propylthio]pyridine hydrochloride] | – | 6.3 | – | Inhibitory percentage (phenylquinone writhing) [3]: 41%; inhibition at 1 µM ([2]; 1 μM): 42%; inhibition at 10 µM ([2]; 10 μM): 11%
O=C1c2ccccc2C(O)N1CSc1ccncc1 (stereo not drawn) [Example 97, 4-(3-hydroxyisoindolin-1-on-2-ylmethylthio)pyridine] | 29 | – | – | inhibition at 1 µM ([2]; 1 μM): 30%; inhibition at 10 µM ([2]; 10 μM): 31%
O=C(NCCCOc1ccncc1)c1ccccc1CO [Example 100, 4-[3-(2-hydroxymethylbenzoyl)aminopropyloxy]pyridine] | 22 | 8 | – | inhibition at 1 µM ([2]; 1 μM): 19%; inhibition at 10 µM ([2]; 10 μM): 32%
O=C1c2ccccc2C(O)N1CCSc1ccncc1 (stereo not drawn) [Example 104, 4-[2-(3-hydroxyisoindolin-1-on-2-yl)ethylthio]pyridine] | 21 | 7.7 | – | –
O=C1c2ccccc2CN1CCCSc1ccncc1 [Example 111, 4-[3-(isoindolin-1-on-2-yl)propylthio]pyridine] | – | 7 | 64 | Antipyretic activity, peak time [4]: 2 h; Antipyretic activity, .increment. °C. [4]: -0.68 °C; inhibition at 1 µM ([2]; 1 μM): 30%; inhibition at 10 µM ([2]; 10 μM): -12%
O=C(c1ccccc1)N(CCOc1ccncc1)Cc1ccccc1 [Example 118, 4-[2-(N-benzyl-N-benzoyl)aminoethyloxy]pyridine hydrochloride] | 31 | – | – | % Inhibition of ART growth ([2]; 1 μM, hydrochloride): 8%; % Inhibition of ART growth ([2]; 10 μM, hydrochloride): 38%
O=C(NCCCCSc1ccncc1)c1ccccc1 [Example 127, 4-[4-(benzoylamino)butylthio]pyridine] | 32 | – | – | –
O=C(NCCCCSc1ccncc1)c1cccs1 [Example 129, 4-[4-(2-thenonylamino)butylthio]pyridine] | 34 | 2.5 | – | –
O=C(c1cccs1)N1CCC(Sc2ccncc2)CC1 [Example 132] | 45 | – | – | –
O=C(NCSc1ccncc1)c1cccnc1 [Example 138, 4-(3-picolinoylaminomethylthio)pyridine] | 25 | – | – | –
O=C1CCC(=O)N1CCCCSc1ccncc1 [Example 143, 4-(4-succinimidobutylthio)pyridine] | 27 | – | – | –
CC(C)(CSc1ccncc1)CN1C(=O)c2ccccc2C1=O [Example 145, 4-(2,2-dimethyl-3-phthalimidopropylthio)pyridine] | 22 | – | – | inhibition at 1 µM ([2]; 1 μM): 17%; inhibition at 10 µM ([2]; 10 μM): -42%
O=C1c2ccccc2CN1CCCCOc1ccncc1 [Example 156, 4-[4-(isoindolin-1-on-2-yl)butyloxy]pyridine] | 32 | 2.9 | – | –
O=C1SC(=Cc2ccccc2)C(=O)N1CSc1ccncc1 [Example 159, 4-(5-benzylidene-2,4-thiazolidinedione)methylthiopyridine] | 25 | – | – | –
O=C1CSC(=S)N1CCCCSc1ccncc1 [Example 163, 4-(4-rhodaninebutylthio)pyridine] | 29 | – | – | inhibition at 10 µM ([2]; 10 μM): 99%
